The record followed here is ChEMBL document CHEMBL5625224, “Identification of [1,2,4]Triazolo[4,3-a]pyrazine PARP1 inhibitors with overcome acquired resistance activities” (Eur J Med Chem, 2023).

The target of series [1] is T1, Poly [ADP-ribose] polymerase 1 (Homo sapiens, UniProt P09874). Description: Inhibition of PARP1 (unknown origin) incubated for 1 hr by ELISA analysis. (An ELISA detects its analyte on a solid surface through an enzyme-linked reagent.)
Series [2] deals with MDA-MB-436. The series is described as follows: Antiproliferative activity against human MDA-MB-436 BRCA1-/- cells assessed as inhibition of cell growth incubated for 7 days by CCK-8 assay. It counts as functional, cell-based. To be noted: MDA-MB-436, 168 h. (In general: Formazan colour is commonly taken as a measure of viable cells.)
Series [3] deals with Olaparib-resistant CAPAN-1. The series is described as follows: Antiproliferative activity against human Olaparib-resistant CAPAN-1 cells assessed as inhibition of cell growth incubated for 7 days by CCK-8 assay. The series is classed as functional, cell-based. As to conditions: Olaparib-resistant CAPAN-1, 168 h.
Series [4] in a line: Antiproliferative activity against human Talazoparib-resistant CAPAN-1 cells assessed as inhibition of cell growth incubated for 7 days by CCK-8 assay. As to conditions: CAPAN-1, 168 h. The series is classed as functional, cell-based.
Series [5] in a line: Antiproliferative activity against human Simmiparib-resistant CAPAN-1 cells assessed as inhibition of cell growth incubated for 7 days by CCK-8 assay. It counts as functional, cell-based. As to conditions: CAPAN-1, 168 h.
A short description of series [6]: Selectivity ratio of IC50 for antiproliferative activity against human Olaparib-resistant CAPAN-1 cells to IC50 for antiproliferative activity against human CAPAN-1 BRCA2-/- cells. The series is classed as functional.
Series [7] in a line: Selectivity ratio of IC50 for antiproliferative activity against human Talazoparib-resistant CAPAN-1 cells to IC50 for antiproliferative activity against human CAPAN-1 BRCA2-/- cells. The series is classed as functional.
The nature of series [8]: Selectivity ratio of IC50 for antiproliferative activity against human Simmiparib-resistant CAPAN-1 cells to IC50 for antiproliferative activity against human CAPAN-1 BRCA2-/- cells. It counts as functional.
Series [9] concerns the target Voltage-gated inwardly rectifying potassium channel KCNH2 (Homo sapiens, UniProt Q12809). The series is described as follows: Inhibition of hERG. It counts as toxicity. (In general: Block of hERG is tested as a sign of cardiac risk.)
The target of series [10] is T1, Poly [ADP-ribose] polymerase 1. The series is described as follows: Inhibition of PARP1 (unknown origin).
Series [11] can be described thus: Cytotoxicity against Chinese hamster V-C8 BRCA2-/- cells assessed as reduction in cell viability. It counts as toxicity, cell-based, Cricetulus griseus.
The test system of series [12] is CAPAN-1. Description: Antiproliferative activity against human CAPAN-1 BRCA2-/- cells assessed as inhibition of cell growth incubated for 7 days by CCK-8 assay. The series is classed as functional, cell-based. To be noted: CAPAN-1, 168 h.
Series [13] relates to CAPAN-1. The series is described as follows: Induction of apoptosis in human CAPAN-1 cells assessed as early apoptotic cells at 1 uM incubated for 48 hrs by Annexin-V/PI staining based flow cytometry analysis (reference value: 10.1%). It counts as functional.
For series [14], the system named is CAPAN-1. Description: Induction of apoptosis in human CAPAN-1 cells assessed as late apoptotic cells at 1 uM incubated for 48 hrs by Annexin-V/PI staining based flow cytometry analysis (reference value: 4.95%). It counts as functional.
Series [15] relates to Olaparib-resistant CAPAN-1. The series is described as follows: Induction of apoptosis in human Olaparib-resistant CAPAN-1 cells assessed as early apoptotic cells at 1 uM incubated for 48 hrs by Annexin-V/PI staining based flow cytometry analysis (reference value: 8.50%). The series is classed as functional.
Series [16] deals with Olaparib-resistant CAPAN-1. The series is described as follows: Induction of apoptosis in human Olaparib-resistant CAPAN-1 cells assessed as late apoptotic cells at 1 uM incubated for 48 hrs by Annexin-V/PI staining based flow cytometry analysis (reference value: 3.67%). The series is classed as functional.

Bounds are passed on as bounds.

Broadly, the IC50 is the point on the concentration scale where inhibition reaches its midpoint. In general, CC50 refers to the concentration giving 50% cytotoxicity.

T1 sequence (P09874 whole entry): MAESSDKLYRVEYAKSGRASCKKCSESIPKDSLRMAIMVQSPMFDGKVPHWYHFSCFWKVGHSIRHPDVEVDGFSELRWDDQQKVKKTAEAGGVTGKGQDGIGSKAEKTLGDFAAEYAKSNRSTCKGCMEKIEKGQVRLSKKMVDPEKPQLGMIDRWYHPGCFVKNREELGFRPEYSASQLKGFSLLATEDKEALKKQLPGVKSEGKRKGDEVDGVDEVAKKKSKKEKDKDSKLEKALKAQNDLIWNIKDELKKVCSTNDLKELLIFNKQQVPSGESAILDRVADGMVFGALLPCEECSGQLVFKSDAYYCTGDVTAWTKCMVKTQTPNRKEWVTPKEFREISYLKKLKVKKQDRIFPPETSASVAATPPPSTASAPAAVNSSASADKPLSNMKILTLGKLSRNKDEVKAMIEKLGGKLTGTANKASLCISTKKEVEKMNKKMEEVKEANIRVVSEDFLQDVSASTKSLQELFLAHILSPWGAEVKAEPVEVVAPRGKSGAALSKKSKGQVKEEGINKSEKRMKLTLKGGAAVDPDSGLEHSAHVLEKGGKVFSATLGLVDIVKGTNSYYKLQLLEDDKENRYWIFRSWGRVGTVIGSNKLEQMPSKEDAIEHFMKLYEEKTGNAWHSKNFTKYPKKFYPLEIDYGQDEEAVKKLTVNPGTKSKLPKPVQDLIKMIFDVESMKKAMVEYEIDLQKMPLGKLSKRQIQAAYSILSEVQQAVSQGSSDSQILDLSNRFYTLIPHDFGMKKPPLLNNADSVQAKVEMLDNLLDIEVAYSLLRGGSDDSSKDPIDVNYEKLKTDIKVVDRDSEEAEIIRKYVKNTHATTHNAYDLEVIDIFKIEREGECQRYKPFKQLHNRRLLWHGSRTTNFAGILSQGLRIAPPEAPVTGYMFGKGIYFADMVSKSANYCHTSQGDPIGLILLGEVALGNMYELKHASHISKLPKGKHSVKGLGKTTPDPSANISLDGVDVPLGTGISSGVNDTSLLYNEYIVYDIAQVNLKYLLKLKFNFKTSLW
Chain of Voltage-gated inwardly rectifying potassium channel KCNH2 (Q12809 whole entry): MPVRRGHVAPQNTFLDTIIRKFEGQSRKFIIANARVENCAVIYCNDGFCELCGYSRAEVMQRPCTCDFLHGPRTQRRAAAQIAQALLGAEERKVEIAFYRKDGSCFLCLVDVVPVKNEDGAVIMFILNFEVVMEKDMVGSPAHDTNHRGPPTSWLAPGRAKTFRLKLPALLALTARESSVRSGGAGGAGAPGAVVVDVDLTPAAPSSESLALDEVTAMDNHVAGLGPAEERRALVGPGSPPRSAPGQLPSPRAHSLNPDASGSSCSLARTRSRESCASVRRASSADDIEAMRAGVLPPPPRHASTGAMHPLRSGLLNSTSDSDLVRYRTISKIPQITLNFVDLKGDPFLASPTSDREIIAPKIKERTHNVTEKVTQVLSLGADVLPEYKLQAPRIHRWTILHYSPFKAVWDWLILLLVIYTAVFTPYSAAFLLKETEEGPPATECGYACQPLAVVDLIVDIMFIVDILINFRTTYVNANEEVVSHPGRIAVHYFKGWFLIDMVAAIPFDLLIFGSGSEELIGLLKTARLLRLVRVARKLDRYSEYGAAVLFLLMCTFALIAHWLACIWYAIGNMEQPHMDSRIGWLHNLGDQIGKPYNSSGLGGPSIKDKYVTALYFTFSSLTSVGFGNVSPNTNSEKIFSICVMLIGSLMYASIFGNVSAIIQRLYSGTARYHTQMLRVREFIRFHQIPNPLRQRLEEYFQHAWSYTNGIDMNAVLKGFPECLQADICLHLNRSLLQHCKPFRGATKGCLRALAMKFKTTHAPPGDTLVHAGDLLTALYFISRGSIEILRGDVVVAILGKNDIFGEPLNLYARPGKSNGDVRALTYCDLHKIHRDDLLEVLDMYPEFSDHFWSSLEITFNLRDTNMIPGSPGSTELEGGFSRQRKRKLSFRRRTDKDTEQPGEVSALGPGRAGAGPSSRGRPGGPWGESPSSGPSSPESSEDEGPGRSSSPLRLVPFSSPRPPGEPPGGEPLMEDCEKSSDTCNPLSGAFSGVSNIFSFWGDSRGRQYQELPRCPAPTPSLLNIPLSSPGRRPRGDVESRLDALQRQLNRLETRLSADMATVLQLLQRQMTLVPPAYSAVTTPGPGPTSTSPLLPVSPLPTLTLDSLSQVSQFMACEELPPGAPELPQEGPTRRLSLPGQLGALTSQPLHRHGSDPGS

`CC1(C)CN(C(=O)c2cc(Cc3n[nH]c(=O)c4ccccc34)ccc2F)Cc2cnnn21`: the IC50 in series [1] is over 1000 nM.
In the case of `CC1CN(C(=O)c2cc(Cc3n[nH]c(=O)c4ccccc34)ccc2F)Cc2nnc(-c3cccs3)n21` (stereo unspecified), the IC50 in [1] was found to be 0.7 nM; in series [2], 1.1 nM; in series [3] it was 4660 nM; in series [4], 730 nM; in series [5], 3290 nM; in [9] it was 4100 nM. For the same compound, the “Ratio IC50” value in series [6] is recorded as 717; in series [7], 112; in [8] it was 507.
As for `CC1CN(C(=O)c2cc(Cc3n[nH]c(=O)c4ccccc34)ccc2F)Cc2nnc(-c3ccco3)n21` (stereo unspecified), the results for the IC50 in series [1] and in series [2] were 1.7 nM and under 0.3 nM, respectively.
`O=C(c1cc(Cc2n[nH]c(=O)c3ccccc23)ccc1F)N1CCc2ccccc2C1C1CC1` (stereo unspecified) returned an IC50 in series [1] of 182 nM.
As to `CC1CN(C(=O)c2cc(Cn3c(=O)[nH]c(=O)c4ccccc43)ccc2F)Cc2nnc(-c3ccccn3)n21` (stereo unspecified), the IC50 in series [1] turned out to be 4.6 nM.
The compound `O=C1CC2c3c(cccc31)CCN2C(=O)c1cc(Cc2n[nH]c(=O)c3ccccc23)ccc1F` (stereo unspecified) came in with an IC50 in series [10] of 3.46 nM. In addition, in [11], the half-maximal cytotoxic concentration (CC50) was 4.53 nM.
`O=C1NCC2c3c(cccc31)CCN2C(=O)c1cc(Cc2n[nH]c(=O)c3ccccc23)ccc1F` (stereo unspecified): in series [11], the CC50 was found to be 96 nM.
With `CC1CN(C(=O)c2cc(Cc3n[nH]c(=O)c4ccccc34)ccc2F)Cc2nnc(CO[Si](C)(C)C(C)(C)C)n21` (stereo unspecified), in [12], the IC50 was 54.7 nM.
As to `CC1CN(C(=O)c2cc(Cc3n[nH]c(=O)c4ccccc34)ccc2F)Cc2nnc(CN(C)C)n21` (stereo unspecified), the IC50 amounted to 17.6 nM in series [1] and 1430 nM in series [12].
In the case of `CC1CN(C(=O)c2cc(Cc3n[nH]c(=O)c4ccccc34)ccc2F)Cc2nnc(-c3ccsc3)n21` (stereo unspecified), the IC50 worked out at 2 nM in series [1] and 7.3 nM in series [12].
With `CC1CN(C(=O)c2cc(Cc3n[nH]c(=O)c4ccccc34)ccc2F)Cc2nnc(C(F)F)n21` (stereo unspecified), the concentration for half-maximal inhibition (IC50) was determined as 4.3 nM in series [1], 2.9 nM in [2] and 29.5 nM in series [12].
For the compound `Cc1c(Cc2ccc(F)c(C(=O)N3Cc4nnc(-c5ccccn5)n4C(C)C3)c2)n[nH]c(=O)c1C` (stereo unspecified), in [1], half-maximal inhibition (IC50) was put at 61.3 nM.
Consider `CC1CN(C(=O)c2cc(COc3ccccc3C(N)=O)ccc2F)Cc2nnc(-c3ccccn3)n21` (stereo unspecified), for which the IC50 in series [1] worked out at 230 nM.
Turning to `O=C(c1cc(Cc2n[nH]c(=O)c3ccccc23)ccc1F)N1CCN(C(=O)C2CC2)CC1` [OLAPARIB], the IC50 is 43.2 nM in series [2], 40 nM in series [3], 11500 nM in [4] and 27600 nM in series [5]. Besides, the Activity in [13] came out at 16.2%; in series [14], 4.5%; in series [15], 11.5%; in series [16], 4.02%.
Compound `CC1CN(C(=O)c2cc(Cc3n[nH]c(=O)c4ccccc34)ccc2F)Cc2nnc(CO)n21` (stereo unspecified) displayed an IC50 in series [1] of 9.2 nM.
Compound `CC1CN(C(=O)c2cc(Cc3n[nH]c(=O)c4ccccc34)ccc2F)Cc2nnc(-c3nccn3C)n21` (stereo unspecified) displayed an IC50 in [1] of 7.7 nM.
`CC1CN(C(=O)c2cc(Cc3n[nH]c(=O)c4ccccc34)ccc2F)Cc2nnc(-c3ccccn3)n21` (stereo unspecified): the IC50 in series [1] was 2 nM; in [2] it was under 0.3 nM; in series [12], 1 nM; in [3] it was 292 nM; in series [4], 97 nM; in series [5], 437 nM. For the same compound, the IC50 in series [9] turned out to be 17400 nM. The “Ratio IC50” value was found to be 165 in series [6], 55 in series [7] and 247 in [8].
For the compound `CC1c2cc(F)ccc2CCN1C(=O)c1cc(Cc2n[nH]c(=O)c3ccccc23)ccc1F` (stereo unspecified), the IC50 in series [1] was found to be 70.7 nM.
`CC1Cn2nncc2CN1C(=O)c1cc(Cc2n[nH]c(=O)c3ccccc23)ccc1F` (stereo unspecified) had an IC50 in series [1] of over 1000 nM.
Regarding `Cn1ncnc1[C@H]1c2n[nH]c(=O)c3cc(F)cc(c23)N[C@@H]1c1ccc(F)cc1` [TALAZOPARIB], the IC50 in [3] was determined as 367 nM; in series [4], 182 nM; in [5], 478 nM. The “Ratio IC50” value in series [6] is on record as 1344; in series [7], 666; in series [8], 1749.
In [1], `COc1ccc2c(c1)C(C)N(C(=O)c1cc(Cc3n[nH]c(=O)c4ccccc34)ccc1F)CC2` (stereo unspecified) showed an IC50 of 108 nM.
Consider `CC1CN(C(=O)c2cc(Cc3n[nH]c(=O)c4ccccc34)ccc2F)Cc2nnc(-c3cnn(C)c3)n21` (stereo unspecified), for which the IC50 amounted to 2.8 nM in [1], 21.1 nM in [2] and 218 nM in [12].
The matching figures for `CC1CN(C(=O)c2cc(Cc3n[nH]c(=O)c4ccccc34)ccc2F)Cc2nnc(-c3ncc[nH]3)n21` (stereo unspecified): 3.2 nM, 1.9 nM and 13.7 nM.
The matching figures for `CC1CN(C(=O)c2cc(Cc3n[nH]c(=O)c4ccccc34)ccc2F)Cc2nnc(C(F)(F)Cl)n21` (stereo unspecified): 3.4 nM, 0.3 nM and 3.4 nM.
Compound `CC1CN(C(=O)c2cc(Cc3n[nH]c(=O)c4ccccc34)ccc2F)Cc2nnc(C(O)CO)n21` (stereo unspecified) came in with an IC50 in series [1] of 21 nM.
For the compound `CC1CN(C(=O)c2cc(Cc3n[nH]c(=O)c4ccccc34)ccc2F)Cc2cnnn21` (stereo unspecified), the IC50 in [1] was over 1000 nM.
`CC1CN(C(=O)c2cc(Cc3n[nH]c(=O)c4ccccc34)ccc2F)Cc2nnc(-c3cncs3)n21` (stereo unspecified): the IC50 in series [1] stood at 5.8 nM; in series [12], 21.6 nM.
`CC1c2ccccc2CCN1C(=O)c1cc(Cc2n[nH]c(=O)c3ccccc23)ccc1F` (stereo unspecified) gave an IC50 in series [1] of 42.8 nM.
As for `CC1CN(C(=O)c2cc(Cc3n[nH]c(=O)c4ccccc34)ccc2F)Cc2nnc(C(F)(F)F)n21` (stereo unspecified), the CC50 in [11] is 42 nM. The IC50 amounted to 1.3 nM in [2], 20 nM in series [3], 20 nM in series [4] and 20 nM in [5].
In turn, `CC1(C)Cn2nncc2CN1C(=O)c1cc(Cc2n[nH]c(=O)c3ccccc23)ccc1F` yielded an IC50 in [1] of over 1000 nM.
On to `CC1CN(C(=O)c2cc(Cc3n[nH]c(=O)c4ccccc34)ccc2F)Cc2nnc(C(F)(F)C(F)(F)F)n21` (stereo unspecified), for which the half-inhibitory concentration (IC50) was found to be 4.1 nM in series [1]; 1.9 nM in series [2]; 2.5 nM in series [12]; 1770 nM in [3]; 272 nM in series [4]; 1530 nM in series [5]. Also, the IC50 in [9] was determined as 40000 nM. Also, the “Ratio IC50” value came to 590 in [6], 91 in [7] and 509 in [8].
`CC1CN(C(=O)c2cc(Cc3ccc(=O)[nH]n3)ccc2F)Cc2nnc(-c3ccccn3)n21` (stereo unspecified) yielded a concentration for half-maximal inhibition (IC50) in series [1] of 947 nM.
Still for that read-out and setting: the figure for `CC1CN(C(=O)c2cc(Cc3n[nH]c(=O)c4ccccc34)ccc2F)Cc2nncn21` (stereo unspecified) is 9.4 nM; for `CC1CN(C(=O)c2cc(Cc3n[nH]c(=O)c4ccccc34)ccc2F)Cc2nnc(CF)n21` (stereo unspecified) it is 11.9 nM; for `CC1CN(C(=O)c2cc(Cc3n[nH]c(=O)c4ccccc34)ccc2F)Cc2nnc(-c3c[nH]cn3)n21` (stereo unspecified) it is 13.1 nM.
The compound `Cc1cc(Cc2ccc(F)c(C(=O)N3Cc4nnc(-c5ccccn5)n4C(C)C3)c2)n[nH]c1=O` (stereo unspecified) registered an IC50 in series [1] of over 1000 nM.
On to `CC(C)c1nnc2n1C(C)CN(C(=O)c1cc(Cc3n[nH]c(=O)c4ccccc34)ccc1F)C2` (stereo unspecified), for which, in series [1], the IC50 was determined as 4.1 nM.
On to `CC1CN(C(=O)c2cc(Cc3n[nH]c(=O)c4ccccc34)ccc2F)Cc2nnc(C3CC3)n21` (stereo unspecified), for which the IC50 in series [1] amounted to 3.2 nM; in series [2] it was 7.5 nM; in [12] it was 60.7 nM.
Take `CC1CN(C(=O)c2cc(Cc3n[nH]c(=O)c4ccccc34)ccc2F)Cc2nnc(C3COC(C)(C)O3)n21` (stereo unspecified): inhibition in [1] was half-maximal at 25 nM (IC50).
For the compound `CC1CN(C(=O)c2cc(Cc3n[nH]c(=O)c4ccccc34)ccc2F)Cc2nnc(CCl)n21` (stereo unspecified), the IC50 was under 0.3 nM in series [1] and 2.7 nM in series [2].
With `CC1CN(C(=O)c2cc(Cc3n[nH]c(=O)c4ccccc34)ccc2F)Cc2nnc(-c3cnccn3)n21` (stereo unspecified), the IC50 was 4 nM in series [1], under 0.3 nM in series [2] and 7.3 nM in series [12].
